Experimental data taken from patent US6737383B1, “Herbicidal oxadiazolidines” (priority 1999, dated 2004).

Key:
[1] = system: purple nutsedge; test: Test B pre/postemergence purple nutsedge; format: in vivo, Cyperus rotundus
Summary of the method: (§1)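 Test chemicals in a non-phytotoxic solvent mixture with surfactant were sprayed preemergence onto planted seeds and postemergence onto plants 2 to 18 cm tall (1- to 4-leaf stage). After twelve to sixteen days in a greenhouse, injury was visually rated against untreated controls from 0 (no effect) to 10 (complete control).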

[2] = system: bedstraw; test: Test B pre/postemergence bedstraw; format: in vivo, Galium aparine
Summary of the method: as §1

[3] = system: rape; test: Test B pre/postemergence rape; format: in vivo, Brassica napus
Summary of the method: as §1

[4] = system: cocklebur; test: Test B pre/postemergence cocklebur; format: in vivo, Xanthium strumarium
Summary of the method: as §1

[5] = system: morningglory; test: Test B pre/postemergence morningglory; format: in vivo, Ipomoea hederacea
Summary of the method: as §1

[6] = system: sugar beet; test: Test B pre/postemergence sugar beet; format: in vivo, Beta vulgaris
Summary of the method: as §1

[7] = system: crabgrass; test: Test B pre/postemergence crabgrass; format: in vivo, Digitaria sanguinalis
Summary of the method: as §1

[8] = system: corn; test: Test B pre/postemergence corn; format: in vivo, Zea mays
Summary of the method: as §1

[9] = system: velvetleaf; test: Test B pre/postemergence velvetleaf; format: in vivo, Abutilon theophrasti
Summary of the method: as §1

[10] = system: pigweed; test: Test B pre/postemergence pigweed; format: in vivo, Amaranthus retroflexus
Summary of the method: as §1

[11] = system: surinam grass; test: Test B pre/postemergence surinam grass; format: in vivo, Brachiaria decumbens
Summary of the method: as §1

[12] = system: wheat; test: Test B pre/postemergence wheat; format: in vivo, Triticum aestivum
Summary of the method: as §1

[13] = system: soybean; test: Test B pre/postemergence soybean; format: in vivo, Glycine max
Summary of the method: as §1

[14] = system: wild oat; test: Test B pre/postemergence wild oat; format: in vivo, Avena fatua
Summary of the method: as §1

[15] = system: giant foxtail; test: Test B pre/postemergence giant foxtail; format: in vivo, Setaria faberii
Summary of the method: as §1

[16] = system: blackgrass; test: Test B pre/postemergence blackgrass; format: in vivo, Alopecurus myosuroides
Summary of the method: as §1

[17] = Postemergence, Rate 62 g/ha, scale 0 to 10, 0 is no effect, 10 is complete control
[18] = Postemergence, Rate 125 g/ha, scale of 0 to 10 where 0 is no effect and 10 is complete control
[19] = Preemergence, Rate 62 g/ha, scale of 0 to 10 where 0 is no effect and 10 is complete control
[20] = Preemergence, Rate 125 g/ha, scale of 0 to 10 where 0 is no effect and 10 is complete control
[21] = Preemergence, Rate 250 g/ha, scale 0 (no effect) to 10 (complete control)
[22] = Rate 250 g/ha, Postemergence, scale 0 to 10, 0 is no effect, 10 is complete control
[23] = Rate 500 g/ha, Postemergence, scale 0 to 10, 0 is no effect, 10 is complete control
[24] = Preemergence, Rate 500 g/ha, scale of 0 to 10 where 0 is no effect and 10 is complete control

CC(C)N(C(=O)n1oc(=O)n(C[C@H](C)Cl)c1=O)c1ccc(F)cc1F [Compound 714]
Plant response rating, Nutsedge [1, 17]: 0 | Nutsedge plant response rating [1, 18]: 0 | Nutsedge plant response rating [1, 19]: 0 | Plant response rating, Nutsedge [1, 20]: 0 | Nutsedge plant response rating [1, 21]: 0 | Nutsedge plant response rating [1, 22]: 5 | Nutsedge plant response rating [1, 23]: 5 | Bedstraw plant response rating [2, 18]: 3 | Bedstraw plant response rating [2, 19]: 0 | Plant response rating, Bedstraw [2, 20]: 8 | Bedstraw plant response rating [2, 21]: 9 | Plant response rating, Rape [3, 17]: 5 | Rape plant response rating [3, 18]: 5 | Rape plant response rating [3, 19]: 2 | Plant response rating, Rape [3, 20]: 3 | Rape plant response rating [3, 21]: 6 | Rape plant response rating [3, 22]: 8 | Rape plant response rating [3, 23]: 9 | Plant response rating, Cocklebur [4, 17]: 0 | Cocklebur plant response rating [4, 18]: 2 | Cocklebur plant response rating [4, 19]: 0 | Plant response rating, Cocklebur [4, 20]: 0 | Cocklebur plant response rating [4, 21]: 0 | Plant response rating, Cocklebur [4, 24]: 0 | Cocklebur plant response rating [4, 22]: 2 | Cocklebur plant response rating [4, 23]: 3 | Plant response rating, Morningglory [5, 17]: 0 | Morningglory plant response rating [5, 19]: 0 | Plant response rating, Morningglory [5, 20]: 2 | Morningglory plant response rating [5, 21]: 0 | Morningglory plant response rating [5, 22]: 2 | Morningglory plant response rating [5, 23]: 2 | Plant response rating, Sugarbeets [6, 17]: 0 | Sugarbeets plant response rating [6, 18]: 6 | Sugarbeets plant response rating [6, 19]: 2 | Plant response rating, Sugarbeets [6, 20]: 4 | Sugarbeets plant response rating [6, 21]: 4 | Sugarbeets plant response rating [6, 22]: 7 | Sugarbeets plant response rating [6, 23]: 7 | Plant response rating, Crabgrass [7, 17]: 4 | Crabgrass plant response rating [7, 18]: 9 | Crabgrass plant response rating [7, 19]: 10 | Plant response rating, Crabgrass [7, 20]: 10 | Crabgrass plant response rating [7, 21]: 10 | Crabgrass plant response rating [7, 22]: 9 | Crabgrass plant response rating [7, 23]: 9 | Plant response rating, Corn [8, 17]: 0 | Corn plant response rating [8, 18]: 0 | Corn plant response rating [8, 19]: 0 | Plant response rating, Corn [8, 20]: 0 | Corn plant response rating [8, 21]: 5 | Corn plant response rating [8, 22]: 0 | Corn plant response rating [8, 23]: 0 | Plant response rating, Velvetleaf [9, 17]: 2 | Velvetleaf plant response rating [9, 18]: 2 | Velvetleaf plant response rating [9, 19]: 6 | Plant response rating, Velvetleaf [9, 20]: 5 | Velvetleaf plant response rating [9, 21]: 2 | Velvetleaf plant response rating [9, 22]: 2 | Velvetleaf plant response rating [9, 23]: 3 | Plant response rating, Redroot pigweed [10, 17]: 5 | Redroot pigweed plant response rating [10, 18]: 8 | Redroot pigweed plant response rating [10, 19]: 10 | Plant response rating, Redroot pigweed [10, 20]: 9 | Redroot pigweed plant response rating [10, 21]: 10 | Redroot pigweed plant response rating [10, 22]: 9 | Redroot pigweed plant response rating [10, 23]: 9 | Plant response rating, B. signalgrass [11, 17]: 2 | B. signalgrass plant response rating [11, 18]: 2 | B. signalgrass plant response rating [11, 19]: 7 | Plant response rating, B. signalgrass [11, 20]: 9 | B. signalgrass plant response rating [11, 21]: 10 | Plant response rating, B. signalgrass [11, 24]: 10 | B. signalgrass plant response rating [11, 22]: 6 | B. signalgrass plant response rating [11, 23]: 6 | Plant response rating, Wheat [12, 17]: 0 | Wheat plant response rating [12, 18]: 0 | Wheat plant response rating [12, 19]: 0 | Plant response rating, Wheat [12, 20]: 4 | Wheat plant response rating [12, 21]: 6 | Wheat plant response rating [12, 22]: 3 | Wheat plant response rating [12, 23]: 6 | Plant response rating, Soybean [13, 17]: 2 | Soybean plant response rating [13, 18]: 4 | Soybean plant response rating [13, 19]: 0 | Plant response rating, Soybean [13, 20]: 0 | Soybean plant response rating [13, 21]: 0 | Soybean plant response rating [13, 22]: 4 | Soybean plant response rating [13, 23]: 3 | Plant response rating, Wild oats [14, 17]: 0 | Wild oats plant response rating [14, 18]: 0 | Wild oats plant response rating [14, 19]: 0 | Plant response rating, Wild oats [14, 20]: 4 | Wild oats plant response rating [14, 21]: 6 | Wild oats plant response rating [14, 22]: 4 | Wild oats plant response rating [14, 23]: 9 | Plant response rating, Giant foxtail [15, 17]: 6 | Giant foxtail plant response rating [15, 18]: 6 | Giant foxtail plant response rating [15, 19]: 10 | Plant response rating, Giant foxtail [15, 20]: 10 | Giant foxtail plant response rating [15, 21]: 10 | Giant foxtail plant response rating [15, 22]: 7 | Giant foxtail plant response rating [15, 23]: 8 | Plant response rating, Blackgrass [16, 17]: 7 | Blackgrass plant response rating [16, 18]: 7 | Blackgrass plant response rating [16, 19]: 7 | Plant response rating, Blackgrass [16, 20]: 8 | Blackgrass plant response rating [16, 21]: 9 | Plant response rating, Blackgrass [16, 24]: 9 | Blackgrass plant response rating [16, 22]: 6 | Blackgrass plant response rating [16, 23]: 7
